Active and inactive are the calls of the source.
How the values were obtained:
CAAX prenyl protease 2 = biological target: T1, CAAX prenyl protease 2 (Homo sapiens, UniProt Q9Y256); experiment: inhibition of Ras-converting CAAX protease Rce1 – biochemical, yeast membranes, quenched-peptide fluorescence, cherry-pick, dose response (AID 588849)
T1 sequence (Q9Y256 whole entry): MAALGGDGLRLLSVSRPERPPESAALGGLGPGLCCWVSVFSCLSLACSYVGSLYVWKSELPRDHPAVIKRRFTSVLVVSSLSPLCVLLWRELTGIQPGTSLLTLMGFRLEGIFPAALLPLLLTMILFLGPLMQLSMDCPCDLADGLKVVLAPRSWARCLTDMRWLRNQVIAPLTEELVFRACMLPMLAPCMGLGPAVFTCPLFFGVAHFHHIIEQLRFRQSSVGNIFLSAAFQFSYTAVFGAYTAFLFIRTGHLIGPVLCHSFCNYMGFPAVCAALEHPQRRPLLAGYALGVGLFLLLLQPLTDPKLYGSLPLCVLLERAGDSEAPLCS

HeLa = experiment: ATP-based viability loss in HeLa cells – cell-based, CellTiter-Glo luminescence, cherry-pick samples, cytotoxicity control for MITF activator project, dose response (AID 540259); assay type: functional; details: Homo sapiens
A-375 [1] = experiment: MITF: Counter assay: A375 proliferation Measured in Cell-Based System Using Plate Reader - 2084-03_Inhibitor_Dose_DryPowder_Activity. [Related pubchem assays (depositor defined):AID488944]; assay type: functional; details: Homo sapiens
A-375 [2] = experiment: proliferation inhibition in MITF-low A375 cells – cell-based, cherry-pick samples, set 2, counter-screen for MITF modulator project, dose response (AID 540335); assay type: functional; details: Homo sapiens
[3] = biological target: T2, Microphthalmia-associated transcription factor (Homo sapiens, UniProt O75030); experiment: reducers of TRPM1 reporter luminescence, concentration series – cell-based, SK-MEL-5, cherry-picked, set 3, MITF inhibitor project, dose response (AID 493073); assay type: functional;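 also: SK-MEL-5 melanoma cells with luciferase driven by the MITF target TRPM1 promoter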
T2 sequence (O75030 whole entry): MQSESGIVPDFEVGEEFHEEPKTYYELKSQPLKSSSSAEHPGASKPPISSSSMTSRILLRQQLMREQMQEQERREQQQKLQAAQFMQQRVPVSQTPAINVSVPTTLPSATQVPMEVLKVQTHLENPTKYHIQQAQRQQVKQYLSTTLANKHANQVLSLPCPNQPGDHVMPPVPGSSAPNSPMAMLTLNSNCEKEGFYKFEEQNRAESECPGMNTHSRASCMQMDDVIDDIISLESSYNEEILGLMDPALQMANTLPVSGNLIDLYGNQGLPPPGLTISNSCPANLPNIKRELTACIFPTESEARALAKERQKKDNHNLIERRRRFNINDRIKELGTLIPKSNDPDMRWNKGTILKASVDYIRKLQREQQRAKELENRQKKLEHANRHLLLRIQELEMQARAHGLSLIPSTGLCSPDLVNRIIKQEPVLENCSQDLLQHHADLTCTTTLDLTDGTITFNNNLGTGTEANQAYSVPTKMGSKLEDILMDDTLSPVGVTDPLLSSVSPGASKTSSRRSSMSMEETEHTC

Escherichia coli = experiment: microbe, parasite or virus in culture
[4] = biological target: T3, Small ubiquitin-related modifier 1 (Homo sapiens, UniProt P63165); experiment: SUMO1 protein-protein binding blockers, potency – biochemical, FRET, dose response (AID 624383); assay type: functional; details: read-out: IC50_Mean
T3 sequence (P63165 whole entry): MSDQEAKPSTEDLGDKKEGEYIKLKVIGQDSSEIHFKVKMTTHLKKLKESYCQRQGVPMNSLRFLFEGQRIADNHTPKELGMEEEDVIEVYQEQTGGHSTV

Streptokinase A = biological target: T4, Streptokinase A (Streptococcus pyogenes serotype M1, UniProt P10520); experiment: viability-normalized secreted streptokinase activity reduction – plasminogen activation absorbance, OD405, dose response (AID 1914); assay type: functional, Streptococcus pyogenes M1 GAS;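 also: secreted streptokinase activity via plasminogen activation per viability signal from cell pellet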
T4 sequence (P10520 whole entry): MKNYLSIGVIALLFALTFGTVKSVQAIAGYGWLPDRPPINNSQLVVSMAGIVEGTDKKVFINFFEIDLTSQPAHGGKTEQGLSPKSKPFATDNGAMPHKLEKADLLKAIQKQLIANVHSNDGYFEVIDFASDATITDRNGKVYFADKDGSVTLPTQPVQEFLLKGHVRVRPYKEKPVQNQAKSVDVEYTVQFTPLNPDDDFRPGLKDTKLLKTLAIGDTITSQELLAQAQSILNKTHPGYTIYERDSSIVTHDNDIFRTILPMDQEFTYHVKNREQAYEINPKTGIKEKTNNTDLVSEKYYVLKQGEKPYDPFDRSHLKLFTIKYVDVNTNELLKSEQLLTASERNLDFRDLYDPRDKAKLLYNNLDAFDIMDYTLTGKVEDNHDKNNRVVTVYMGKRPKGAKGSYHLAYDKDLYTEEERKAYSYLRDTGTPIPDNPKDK

BJ [5] = experiment: BJ-TERT fibroblast viability loss – cell-based, RAS-independent, luminescence, dose response (AID 1933); assay type: functional; details: Homo sapiens
[6] = test system: Streptococcus sp. 'group A'; experiment: Streptococcus pyogenes SK(-)GAS viability under kanamycin – luminescence, BacTiterGlo, confirmation, counter-screen for streptokinase expression inhibitor project, dose response (AID 1900); assay type: functional, organism-based; details: Streptococcus sp. 'group A'
[7] = biological target: T3, Small ubiquitin-related modifier 1; experiment: SUMO1 protein interaction blockers, potency – biochemical, fluorescence polarization, uHTS hits, dose response (AID 624382); assay type: functional; details: read-out: IC50_Mean
Streptococcus = experiment: GAS UMAA2166 growth inhibition – luminescence, BacTiterGlo, counter-screen for streptokinase expression inhibitor project, dose response (AID 1915); assay type: functional, organism-based; details: Streptococcus;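 also: potency for reduction of bacterial viability or growth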
BJ [8] = experiment: BJ-TERT-LT-ST fibroblast viability loss – cell-based, RAS-independent, luminescence, dose response (AID 1935); assay type: functional; details: Homo sapiens;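 also: BJ fibroblasts immortalized with TERT plus LT and ST oncogenes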
[9] = biological target: T5, DNA repair protein RAD52 homolog (Homo sapiens, UniProt P43351); assay type: functional, biochemical
T5 sequence (P43351 whole entry): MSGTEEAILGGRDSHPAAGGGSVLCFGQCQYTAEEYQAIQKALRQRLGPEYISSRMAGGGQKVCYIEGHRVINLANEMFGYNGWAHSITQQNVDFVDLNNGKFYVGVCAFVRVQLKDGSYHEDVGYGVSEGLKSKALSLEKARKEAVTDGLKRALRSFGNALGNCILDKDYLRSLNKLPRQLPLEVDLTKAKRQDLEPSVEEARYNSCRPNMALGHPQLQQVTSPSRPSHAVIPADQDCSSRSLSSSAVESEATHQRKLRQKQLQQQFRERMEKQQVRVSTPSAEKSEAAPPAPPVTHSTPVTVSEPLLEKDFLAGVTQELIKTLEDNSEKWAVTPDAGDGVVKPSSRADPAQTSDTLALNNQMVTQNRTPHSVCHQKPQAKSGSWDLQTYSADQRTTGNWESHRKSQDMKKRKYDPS

BJ [10] = experiment: cells; assay type: functional, cell-based; details: Homo sapiens
[11] = DRD fibroblast viability loss – cell-based, non-viral oncogenic, luminescence, dose response (AID 1934); assay type: functional; details: Homo sapiens
[12] = biological target: T6, Rac GTPase-activating protein 1 (Homo sapiens, UniProt Q9H0H5); experiment: blockers of MgcRacGAP-driven Rac1 GTP hydrolysis – biochemical, ADP Hunter fluorescence, primary and confirmatory, confirmation (AID 624330); assay type: functional
T6 sequence (Q9H0H5 whole entry): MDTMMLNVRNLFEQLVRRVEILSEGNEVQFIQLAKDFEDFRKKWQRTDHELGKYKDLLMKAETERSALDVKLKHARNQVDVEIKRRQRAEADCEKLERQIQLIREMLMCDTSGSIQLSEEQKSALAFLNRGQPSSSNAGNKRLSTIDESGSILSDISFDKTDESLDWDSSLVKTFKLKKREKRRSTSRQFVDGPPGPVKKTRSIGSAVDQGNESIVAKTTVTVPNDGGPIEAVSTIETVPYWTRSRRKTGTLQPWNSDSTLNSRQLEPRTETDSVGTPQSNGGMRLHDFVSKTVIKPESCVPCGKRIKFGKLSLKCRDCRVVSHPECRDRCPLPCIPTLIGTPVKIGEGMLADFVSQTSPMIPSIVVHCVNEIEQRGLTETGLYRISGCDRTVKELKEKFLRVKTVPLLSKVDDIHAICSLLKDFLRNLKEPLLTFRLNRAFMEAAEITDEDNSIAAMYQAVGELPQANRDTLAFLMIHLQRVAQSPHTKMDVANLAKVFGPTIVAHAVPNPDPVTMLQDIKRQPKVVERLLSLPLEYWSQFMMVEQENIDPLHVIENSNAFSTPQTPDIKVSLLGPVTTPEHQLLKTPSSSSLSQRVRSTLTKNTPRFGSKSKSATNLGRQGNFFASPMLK

[13] = viability of PTEN-deleted HCT116 cells – cell-based, HCT116 PTEN knockout, dose response (AID 1047); assay type: functional;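 also: HCT116 colon tumor cells with PTEN knocked out; cells exposed to compound for 60 hours before readout; potency for loss of cell viability measured by luminescence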
Cytochrome P450 2D6 = Cytochrome P450 2D6 (Homo sapiens, UniProt P10635);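 also: CYP2D6 member of a cytochrome P450 panel assay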
Cytochrome P450 2D6, sequence (P10635 whole entry): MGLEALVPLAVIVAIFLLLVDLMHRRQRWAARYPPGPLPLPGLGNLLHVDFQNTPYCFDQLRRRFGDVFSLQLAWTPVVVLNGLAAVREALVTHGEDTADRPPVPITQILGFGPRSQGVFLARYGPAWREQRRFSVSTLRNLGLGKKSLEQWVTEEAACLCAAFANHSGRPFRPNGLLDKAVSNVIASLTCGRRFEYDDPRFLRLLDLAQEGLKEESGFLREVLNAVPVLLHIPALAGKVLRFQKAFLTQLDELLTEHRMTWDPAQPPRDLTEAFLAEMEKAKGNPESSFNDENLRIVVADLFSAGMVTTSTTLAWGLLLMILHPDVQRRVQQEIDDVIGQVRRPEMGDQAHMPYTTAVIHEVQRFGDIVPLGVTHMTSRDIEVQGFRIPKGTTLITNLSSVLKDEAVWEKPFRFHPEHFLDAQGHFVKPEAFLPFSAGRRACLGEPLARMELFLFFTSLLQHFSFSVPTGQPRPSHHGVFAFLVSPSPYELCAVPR

[14] = viability of HCT116 lacking mutant beta-catenin – cell-based, human colon tumor, dose response (AID 1045); assay type: functional;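 also: HCT116 colon tumor cells with beta catenin knocked out; cells exposed to compound for 60 hours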

For CSc1ccc(/C=C/C(=O)OCC(=O)NC(C)C)cc1, the AC50 (CAAX prenyl protease 2) was 35.8 µM (active).

For COc1ccc(N2C(=O)c3ccccc3NC23CCCCC3)cc1, the AC50 (HeLa) was 300 µM (active).

In the case of O=C(Cn1ncc(Cl)c(Cl)c1=O)NC1CCCCC1, the AC50 (A-375 [1]) is reported as > 35 µM (active), the AC50 (A-375 [2]) is reported as > 35 µM (active) and the AC50 [3] is reported as 6.82 µM (active).

For Cn1ccc(=Nc2ccc(NC(=O)c3ccc(/N=c4\ccn(C)c5ccc([N+](=O)[O-])cc45)cc3)cc2)cc1, the AC50 (Escherichia coli) was 12 µM (active), the IC50 [4] was 13.1 µM (active) and the EC50 (Streptokinase A) was 28 µM (inconclusive). For the same compound, the EC50 (BJ [5]) was 15.3 µM (active), the EC50 [6] was 0.976 µM (active) and the IC50 [7] was > 66.6 µM (inactive). For the same compound, the EC50 (Streptococcus) was 2.47 µM (active), the EC50 (BJ [8]) was > 150 µM (inconclusive) and the AC50 [9] was 1.28 µM (active). The EC50 (BJ [10]) was 18 µM (inconclusive), the EC50 [11] was 17.1 µM (active) and the IC50 [12] was 35.5 µM (active).

In the case of O=C(N/N=C/c1cc([N+](=O)[O-])ccc1N1CCNCC1)c1ccc([N+](=O)[O-])cc1, the EC50 [13] is reported as 11.1 µM (active), the AC50 (A-375 [1]) is reported as 24.1 µM (active) and the AC50 (Cytochrome P450 2D6) is reported as 25.1 µM (inconclusive). The EC50 [14] was 12.1 µM (active) and the AC50 [3] was 8.19 µM (active).
